Source: the kinase profiling compilation of Christmann-Franck et al. (2016)

What was measured:
Assay in all cases: radiometric filter-binding kinase assay, Kinase HotSpot
Conditions in all cases: compound 0.5 µM; ATP 10 µM
PRKCB2 (human) = PRKCB2 (human) (UniProt P05771)
ADRBK1 (human) = ADRBK1 (human) (UniProt P25098)
EGFR (human) = EGFR (human) (UniProt P00533)
MYO3B (human) = MYO3B (human) (UniProt Q8WXR4)
STK39 (human) = STK39 (human) (UniProt Q9UEW8)
LTK (human) = LTK (human) (UniProt P29376)
Chain of LTK (human) (P29376 whole entry, looked up): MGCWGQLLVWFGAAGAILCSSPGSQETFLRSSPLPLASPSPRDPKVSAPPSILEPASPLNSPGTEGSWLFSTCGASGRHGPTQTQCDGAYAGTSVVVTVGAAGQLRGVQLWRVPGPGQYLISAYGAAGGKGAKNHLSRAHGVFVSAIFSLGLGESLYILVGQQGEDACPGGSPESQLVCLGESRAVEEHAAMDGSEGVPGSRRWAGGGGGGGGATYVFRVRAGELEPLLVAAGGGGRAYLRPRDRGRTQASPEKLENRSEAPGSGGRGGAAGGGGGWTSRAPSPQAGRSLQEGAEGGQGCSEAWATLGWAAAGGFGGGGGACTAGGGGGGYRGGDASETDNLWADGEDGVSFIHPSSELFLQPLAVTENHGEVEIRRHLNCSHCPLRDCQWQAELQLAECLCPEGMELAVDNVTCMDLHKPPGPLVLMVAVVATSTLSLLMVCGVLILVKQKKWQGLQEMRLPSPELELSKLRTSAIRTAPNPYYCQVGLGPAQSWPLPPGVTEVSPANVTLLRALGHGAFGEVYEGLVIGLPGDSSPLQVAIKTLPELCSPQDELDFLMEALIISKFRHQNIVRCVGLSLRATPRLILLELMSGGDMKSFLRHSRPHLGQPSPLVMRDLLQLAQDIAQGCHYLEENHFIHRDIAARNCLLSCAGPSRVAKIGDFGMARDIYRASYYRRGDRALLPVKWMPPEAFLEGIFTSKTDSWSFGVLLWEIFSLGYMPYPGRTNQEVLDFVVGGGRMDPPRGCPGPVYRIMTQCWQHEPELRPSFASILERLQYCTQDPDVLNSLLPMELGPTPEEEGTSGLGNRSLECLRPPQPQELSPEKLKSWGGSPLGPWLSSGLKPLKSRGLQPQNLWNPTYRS

FRK (human) = FRK (human) (UniProt P42685)
DYRK3 (human) = DYRK3 (human) (UniProt O43781)
PRKX (human) = PRKX (human) (UniProt P51817)
Chain of PRKX (human) (P51817 whole entry, looked up): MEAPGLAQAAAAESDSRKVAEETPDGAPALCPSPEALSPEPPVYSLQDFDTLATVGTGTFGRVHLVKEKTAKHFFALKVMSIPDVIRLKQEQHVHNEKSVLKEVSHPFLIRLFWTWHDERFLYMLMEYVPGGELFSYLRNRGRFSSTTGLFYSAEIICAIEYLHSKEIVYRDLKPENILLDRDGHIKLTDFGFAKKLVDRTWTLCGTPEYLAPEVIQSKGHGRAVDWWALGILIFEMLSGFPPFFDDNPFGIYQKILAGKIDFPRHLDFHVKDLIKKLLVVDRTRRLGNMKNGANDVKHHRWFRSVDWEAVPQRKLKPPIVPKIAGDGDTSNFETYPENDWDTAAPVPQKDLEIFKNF

CDK1 CCNB1 (human) = CDK1 CCNB1 (human) (UniProt P06493+P14635)
Chain of CDK1 CCNB1 (human) (P06493 whole entry, looked up): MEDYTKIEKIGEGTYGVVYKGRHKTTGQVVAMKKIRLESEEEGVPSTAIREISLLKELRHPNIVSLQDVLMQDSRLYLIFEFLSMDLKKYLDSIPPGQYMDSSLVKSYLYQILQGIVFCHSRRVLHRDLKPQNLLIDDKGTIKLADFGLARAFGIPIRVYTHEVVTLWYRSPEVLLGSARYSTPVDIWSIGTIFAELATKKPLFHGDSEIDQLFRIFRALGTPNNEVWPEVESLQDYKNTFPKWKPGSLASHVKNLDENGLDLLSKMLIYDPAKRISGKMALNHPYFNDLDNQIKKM
Chain of CDK1 CCNB1 (human) (P14635 whole entry, looked up): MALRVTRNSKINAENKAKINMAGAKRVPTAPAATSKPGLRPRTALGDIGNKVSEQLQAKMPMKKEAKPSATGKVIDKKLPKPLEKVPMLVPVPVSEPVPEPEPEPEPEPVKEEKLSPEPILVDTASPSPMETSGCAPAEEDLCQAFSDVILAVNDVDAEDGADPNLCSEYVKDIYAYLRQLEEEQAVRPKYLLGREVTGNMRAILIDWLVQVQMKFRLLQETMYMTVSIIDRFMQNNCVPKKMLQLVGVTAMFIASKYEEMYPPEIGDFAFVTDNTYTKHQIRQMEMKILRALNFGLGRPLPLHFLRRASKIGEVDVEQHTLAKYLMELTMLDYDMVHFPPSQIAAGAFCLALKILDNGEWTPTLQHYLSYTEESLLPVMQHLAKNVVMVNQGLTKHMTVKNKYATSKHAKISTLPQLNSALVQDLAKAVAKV

VRK1 (human) = VRK1 (human) (UniProt Q99986)
BRSK1 (human) = BRSK1 (human) (UniProt Q8TDC3)
NEK2 (human) = NEK2 (human) (UniProt P51955)
MAP2K1 (human) = MAP2K1 (human) (UniProt Q02750)
DDR2 (human) = DDR2 (human) (UniProt Q16832)
TEK (human) = TEK (human) (UniProt Q02763)
DYRK2 (human) = DYRK2 (human) (UniProt Q92630)
EPHA7 (human) = EPHA7 (human) (UniProt Q15375)
MAP3K5 (human) = MAP3K5 (human) (UniProt Q99683)
PRKACG (human) = PRKACG (human) (UniProt P22612)
Chain of PRKACG (human) (P22612 whole entry, looked up): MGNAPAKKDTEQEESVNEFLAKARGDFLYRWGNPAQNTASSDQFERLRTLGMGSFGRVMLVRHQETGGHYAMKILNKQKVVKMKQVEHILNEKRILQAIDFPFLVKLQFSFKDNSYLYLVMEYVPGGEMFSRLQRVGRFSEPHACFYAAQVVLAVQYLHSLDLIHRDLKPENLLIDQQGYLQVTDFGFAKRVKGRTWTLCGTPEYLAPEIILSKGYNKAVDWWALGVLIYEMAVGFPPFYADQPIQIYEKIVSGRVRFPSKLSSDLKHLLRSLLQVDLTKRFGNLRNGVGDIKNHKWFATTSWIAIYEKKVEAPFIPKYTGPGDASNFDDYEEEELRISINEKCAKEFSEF

CSNK1G2 (human) = CSNK1G2 (human) (UniProt P78368)
MARK2 (human) = MARK2 (human) (UniProt Q7KZI7)
PHKG1 (human) = PHKG1 (human) (UniProt Q16816)
Chain of PHKG1 (human) (Q16816 whole entry, looked up): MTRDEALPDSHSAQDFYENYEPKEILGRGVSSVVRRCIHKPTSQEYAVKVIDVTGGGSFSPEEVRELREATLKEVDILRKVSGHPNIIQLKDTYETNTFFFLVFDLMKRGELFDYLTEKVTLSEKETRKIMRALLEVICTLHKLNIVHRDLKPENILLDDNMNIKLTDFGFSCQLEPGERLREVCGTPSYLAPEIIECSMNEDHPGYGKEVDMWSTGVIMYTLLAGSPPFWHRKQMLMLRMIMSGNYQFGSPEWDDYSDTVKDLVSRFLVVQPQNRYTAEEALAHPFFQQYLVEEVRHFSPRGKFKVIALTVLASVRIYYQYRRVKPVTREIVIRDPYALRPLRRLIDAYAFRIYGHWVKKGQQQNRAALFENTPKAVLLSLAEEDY

GRK7 (human) = GRK7 (human) (UniProt Q8WTQ7)
Chain of GRK7 (human) (Q8WTQ7 whole entry, looked up): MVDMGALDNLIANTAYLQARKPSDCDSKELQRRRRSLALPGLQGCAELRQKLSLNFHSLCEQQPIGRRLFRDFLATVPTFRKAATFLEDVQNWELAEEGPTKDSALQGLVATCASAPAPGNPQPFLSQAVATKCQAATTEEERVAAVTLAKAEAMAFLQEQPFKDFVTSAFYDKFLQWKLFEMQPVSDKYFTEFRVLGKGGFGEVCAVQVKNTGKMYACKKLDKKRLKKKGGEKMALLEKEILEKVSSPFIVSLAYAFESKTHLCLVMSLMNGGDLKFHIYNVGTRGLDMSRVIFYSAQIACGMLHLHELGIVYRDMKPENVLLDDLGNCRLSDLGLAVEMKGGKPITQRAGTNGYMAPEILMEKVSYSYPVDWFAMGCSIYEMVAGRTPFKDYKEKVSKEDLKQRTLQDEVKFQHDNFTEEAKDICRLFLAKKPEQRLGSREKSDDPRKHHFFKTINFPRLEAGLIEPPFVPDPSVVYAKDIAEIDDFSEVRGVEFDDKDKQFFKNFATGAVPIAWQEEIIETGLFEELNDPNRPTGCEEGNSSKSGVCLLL

CHEK2 (human) = CHEK2 (human) (UniProt O96017)
MAP4K2 (human) = MAP4K2 (human) (UniProt Q12851)
TXK (human) = TXK (human) (UniProt P42681)
Chain of TXK (human) (P42681 whole entry, looked up): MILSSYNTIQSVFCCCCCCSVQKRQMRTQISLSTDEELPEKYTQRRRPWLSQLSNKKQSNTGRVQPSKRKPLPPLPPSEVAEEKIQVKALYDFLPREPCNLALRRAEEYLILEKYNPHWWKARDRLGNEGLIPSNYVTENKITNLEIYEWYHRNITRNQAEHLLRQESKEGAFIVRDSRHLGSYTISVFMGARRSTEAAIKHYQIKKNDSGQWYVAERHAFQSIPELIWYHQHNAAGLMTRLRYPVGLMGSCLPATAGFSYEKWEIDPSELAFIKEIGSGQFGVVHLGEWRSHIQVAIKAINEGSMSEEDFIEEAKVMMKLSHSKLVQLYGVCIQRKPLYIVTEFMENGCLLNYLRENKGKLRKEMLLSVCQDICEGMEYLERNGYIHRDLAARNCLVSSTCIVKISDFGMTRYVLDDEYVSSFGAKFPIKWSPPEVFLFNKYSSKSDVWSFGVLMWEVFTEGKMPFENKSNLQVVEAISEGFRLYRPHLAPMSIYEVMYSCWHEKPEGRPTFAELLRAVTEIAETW

MAP3K14 (human) = MAP3K14 (human) (UniProt Q99558)
SRPK3 (human) = SRPK3 (human) (UniProt Q9UPE1)
INSRR (human) = INSRR (human) (UniProt P14616)
STK33 (human) = STK33 (human) (UniProt Q9BYT3)
DYRK4 (human) = DYRK4 (human) (UniProt Q9NR20)
AXL (human) = AXL (human) (UniProt P30530)
EPHA1 (human) = EPHA1 (human) (UniProt P21709)
DAPK3 (human) = DAPK3 (human) (UniProt O43293)
Chain of DAPK3 (human) (O43293 whole entry, looked up): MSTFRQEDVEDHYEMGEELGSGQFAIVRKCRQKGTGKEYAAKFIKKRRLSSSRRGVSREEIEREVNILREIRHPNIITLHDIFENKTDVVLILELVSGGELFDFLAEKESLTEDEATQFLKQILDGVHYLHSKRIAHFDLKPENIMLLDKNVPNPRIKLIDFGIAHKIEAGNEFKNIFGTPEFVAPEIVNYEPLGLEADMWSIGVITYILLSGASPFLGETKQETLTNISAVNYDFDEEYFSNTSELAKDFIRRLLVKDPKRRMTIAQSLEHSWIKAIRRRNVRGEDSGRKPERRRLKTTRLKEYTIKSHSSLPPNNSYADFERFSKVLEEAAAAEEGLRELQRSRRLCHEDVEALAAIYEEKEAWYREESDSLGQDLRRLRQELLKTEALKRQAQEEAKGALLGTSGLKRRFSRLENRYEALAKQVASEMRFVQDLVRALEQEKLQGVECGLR

BTK (human) = BTK (human) (UniProt Q06187)
CAMKK1 (human) = CAMKK1 (human) (UniProt Q8N5S9)
PRKCZ (human) = PRKCZ (human) (UniProt Q05513)
BMX (human) = BMX (human) (UniProt P51813)
PRKCD (human) = PRKCD (human) (UniProt Q05655)
Chain of PRKCD (human) (Q05655 whole entry, looked up): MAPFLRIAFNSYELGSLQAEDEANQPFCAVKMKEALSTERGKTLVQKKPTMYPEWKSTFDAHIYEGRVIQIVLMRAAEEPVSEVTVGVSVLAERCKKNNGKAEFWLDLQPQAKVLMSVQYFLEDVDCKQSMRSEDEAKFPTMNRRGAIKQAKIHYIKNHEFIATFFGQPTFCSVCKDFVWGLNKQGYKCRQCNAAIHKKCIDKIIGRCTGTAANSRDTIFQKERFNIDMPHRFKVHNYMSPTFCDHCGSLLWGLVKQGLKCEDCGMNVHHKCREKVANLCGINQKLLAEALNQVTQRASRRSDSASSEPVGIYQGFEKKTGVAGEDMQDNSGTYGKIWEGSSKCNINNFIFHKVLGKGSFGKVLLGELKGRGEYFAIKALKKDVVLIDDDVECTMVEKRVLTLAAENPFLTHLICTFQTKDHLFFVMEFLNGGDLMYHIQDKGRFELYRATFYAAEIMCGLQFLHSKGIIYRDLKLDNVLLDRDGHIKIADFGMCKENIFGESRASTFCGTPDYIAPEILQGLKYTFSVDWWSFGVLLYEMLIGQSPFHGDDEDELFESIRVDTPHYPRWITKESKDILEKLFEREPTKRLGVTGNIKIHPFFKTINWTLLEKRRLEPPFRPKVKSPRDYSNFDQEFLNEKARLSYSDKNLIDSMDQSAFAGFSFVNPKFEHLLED

SRPK2 (human) = SRPK2 (human) (UniProt P78362)
GRK5 (human) = GRK5 (human) (UniProt P34947)

Structure (SMILES): O=C1Nc2ccc(Cl)cc2/C1=C/c1cc(Cl)c(O)c(Cl)c1
- residual activity (PRKCB2 (human)): 97.5%
- residual activity (ADRBK1 (human)): 93.4%
- residual activity (EGFR (human)): 93.5%
- residual activity (MYO3B (human)): 17.4%
- residual activity (STK39 (human)): 97%
- residual activity (LTK (human)): 36.9%
- residual activity (FRK (human)): 70.3%
- residual activity (DYRK3 (human)): 91.8%
- residual activity (PRKX (human)): 92.1%
- residual activity (CDK1 CCNB1 (human)): 96.3%
- residual activity (VRK1 (human)): 80.6%
- residual activity (BRSK1 (human)): 81.3%
- residual activity (NEK2 (human)): 86%
- residual activity (MAP2K1 (human)): 96.8%
- residual activity (DDR2 (human)): 85.8%
- residual activity (TEK (human)): 93%
- residual activity (DYRK2 (human)): 94%
- residual activity (EPHA7 (human)): 97.5%
- residual activity (MAP3K5 (human)): 106%
- residual activity (PRKACG (human)): 99.2%
- residual activity (CSNK1G2 (human)): 83.5%
- residual activity (MARK2 (human)): 79.7%
- residual activity (PHKG1 (human)): 86.4%
- residual activity (GRK7 (human)): 97.3%
- residual activity (CHEK2 (human)): 70.2%
- residual activity (MAP4K2 (human)): 62.6%
- residual activity (TXK (human)): 86.6%
- residual activity (MAP3K14 (human)): 111%
- residual activity (SRPK3 (human)): 88.3%
- residual activity (INSRR (human)): 100%
- residual activity (STK33 (human)): 85.1%
- residual activity (DYRK4 (human)): 95.7%
- residual activity (AXL (human)): 106%
- residual activity (EPHA1 (human)): 88.9%
- residual activity (DAPK3 (human)): 82.3%
- residual activity (BTK (human)): 92.1%
- residual activity (CAMKK1 (human)): 52.5%
- residual activity (PRKCZ (human)): 95.3%
- residual activity (BMX (human)): 94.8%
- residual activity (PRKCD (human)): 86.7%
- residual activity (SRPK2 (human)): 95.2%
- residual activity (GRK5 (human)): 95.8%

Structure (SMILES): Nc1ccc2ncnc(NCCc3ccc(Oc4ccccc4)cc3)c2c1
- residual activity (PRKCB2 (human)): 104%
- residual activity (ADRBK1 (human)): 91.5%
- residual activity (EGFR (human)): 112%
- residual activity (MYO3B (human)): 96.6%
- residual activity (STK39 (human)): 83.9%
- residual activity (LTK (human)): 106%
- residual activity (FRK (human)): 100%
- residual activity (DYRK3 (human)): 89.6%
- residual activity (PRKX (human)): 104%
- residual activity (CDK1 CCNB1 (human)): 96.3%
- residual activity (VRK1 (human)): 99.5%
- residual activity (BRSK1 (human)): 101%
- residual activity (NEK2 (human)): 90%
- residual activity (MAP2K1 (human)): 107%
- residual activity (DDR2 (human)): 96.8%
- residual activity (TEK (human)): 99%
- residual activity (DYRK2 (human)): 89.6%
- residual activity (EPHA7 (human)): 104%
- residual activity (MAP3K5 (human)): 105%
- residual activity (PRKACG (human)): 110%
- residual activity (CSNK1G2 (human)): 100%
- residual activity (MARK2 (human)): 84.9%
- residual activity (PHKG1 (human)): 96.4%
- residual activity (GRK7 (human)): 104%
- residual activity (CHEK2 (human)): 91.7%
- residual activity (MAP4K2 (human)): 100%
- residual activity (TXK (human)): 102%
- residual activity (MAP3K14 (human)): 109%
- residual activity (SRPK3 (human)): 96.6%
- residual activity (INSRR (human)): 98.7%
- residual activity (STK33 (human)): 101%
- residual activity (DYRK4 (human)): 93.7%
- residual activity (AXL (human)): 96.1%
- residual activity (EPHA1 (human)): 86.6%
- residual activity (DAPK3 (human)): 104%
- residual activity (BTK (human)): 96.8%
- residual activity (CAMKK1 (human)): 119%
- residual activity (PRKCZ (human)): 96%
- residual activity (BMX (human)): 102%
- residual activity (PRKCD (human)): 97.6%
- residual activity (SRPK2 (human)): 95.3%
- residual activity (GRK5 (human)): 98%

Structure (SMILES): Nc1ncnc2[nH]nc(Nc3ccc(F)cc3)c12
- residual activity (PRKCB2 (human)): 105%
- residual activity (ADRBK1 (human)): 98.6%
- residual activity (EGFR (human)): 100%
- residual activity (MYO3B (human)): 87.9%
- residual activity (STK39 (human)): 88.5%
- residual activity (LTK (human)): 92.5%
- residual activity (FRK (human)): 90%
- residual activity (DYRK3 (human)): 89%
- residual activity (PRKX (human)): 90.4%
- residual activity (CDK1 CCNB1 (human)): 90.7%
- residual activity (VRK1 (human)): 82.9%
- residual activity (BRSK1 (human)): 63%
- residual activity (NEK2 (human)): 89.3%
- residual activity (MAP2K1 (human)): 101%
- residual activity (DDR2 (human)): 94.2%
- residual activity (TEK (human)): 94.9%
- residual activity (DYRK2 (human)): 90.6%
- residual activity (EPHA7 (human)): 101%
- residual activity (MAP3K5 (human)): 111%
- residual activity (PRKACG (human)): 96.2%
- residual activity (CSNK1G2 (human)): 95.7%
- residual activity (MARK2 (human)): 87%
- residual activity (PHKG1 (human)): 87.5%
- residual activity (GRK7 (human)): 105%
- residual activity (CHEK2 (human)): 98.6%
- residual activity (MAP4K2 (human)): 88.9%
- residual activity (TXK (human)): 67.6%
- residual activity (MAP3K14 (human)): 111%
- residual activity (SRPK3 (human)): 91.5%
- residual activity (INSRR (human)): 96.9%
- residual activity (STK33 (human)): 94.3%
- residual activity (DYRK4 (human)): 104%
- residual activity (AXL (human)): 45.4%
- residual activity (EPHA1 (human)): 101%
- residual activity (DAPK3 (human)): 124%
- residual activity (BTK (human)): 82.3%
- residual activity (CAMKK1 (human)): 101%
- residual activity (PRKCZ (human)): 109%
- residual activity (BMX (human)): 89.6%
- residual activity (PRKCD (human)): 112%
- residual activity (SRPK2 (human)): 97.1%
- residual activity (GRK5 (human)): 97.1%

Structure (SMILES): CO[C@H]1CC2CC[C@@H](C)[C@@](O)(O2)C(=O)C(=O)N2CCCC[C@H]2C(=O)OC([C@H](C)C[C@@H]2CC[C@@H](O)[C@H](OC)C2)CC(=O)[C@H](C)/C=C(\C)[C@@H](O)[C@@H](OC)C(=O)[C@H](C)C[C@H](C)/C=C/C=C/C=C/1C (stereo partly drawn)
- residual activity (PRKCB2 (human)): 89.1%
- residual activity (ADRBK1 (human)): 102%
- residual activity (EGFR (human)): 93.3%
- residual activity (MYO3B (human)): 106%
- residual activity (STK39 (human)): 97.9%
- residual activity (LTK (human)): 107%
- residual activity (FRK (human)): 106%
- residual activity (DYRK3 (human)): 105%
- residual activity (PRKX (human)): 95.6%
- residual activity (CDK1 CCNB1 (human)): 103%
- residual activity (VRK1 (human)): 108%
- residual activity (BRSK1 (human)): 99.9%
- residual activity (NEK2 (human)): 107%
- residual activity (MAP2K1 (human)): 92.1%
- residual activity (DDR2 (human)): 95.6%
- residual activity (TEK (human)): 97.6%
- residual activity (DYRK2 (human)): 100%
- residual activity (EPHA7 (human)): 89.7%
- residual activity (MAP3K5 (human)): 107%
- residual activity (PRKACG (human)): 113%
- residual activity (CSNK1G2 (human)): 94.8%
- residual activity (MARK2 (human)): 104%
- residual activity (PHKG1 (human)): 93%
- residual activity (GRK7 (human)): 98%
- residual activity (CHEK2 (human)): 99%
- residual activity (MAP4K2 (human)): 111%
- residual activity (TXK (human)): 105%
- residual activity (MAP3K14 (human)): 105%
- residual activity (SRPK3 (human)): 97.2%
- residual activity (INSRR (human)): 102%
- residual activity (STK33 (human)): 105%
- residual activity (DYRK4 (human)): 99.8%
- residual activity (AXL (human)): 99.5%
- residual activity (EPHA1 (human)): 99.5%
- residual activity (DAPK3 (human)): 104%
- residual activity (BTK (human)): 101%
- residual activity (CAMKK1 (human)): 118%
- residual activity (PRKCZ (human)): 105%
- residual activity (BMX (human)): 96.6%
- residual activity (PRKCD (human)): 102%
- residual activity (SRPK2 (human)): 104%
- residual activity (GRK5 (human)): 98.7%
